Patent EP1003557B1, “NEW SALTS WITH BENEFICIAL ORGANOLEPTIC PROPERTIES” (CHINOIN Gyogyszer és Vegyészeti Termékek Gyára RT., priority 1997, dated 1999)
Where a name gives a salt, the structure may show the parent alone.

System: Human U937 (cell line) PDE-IV enzime
Test: Cyclic nucleotide phosphodiesterase (PDE-IV) enzyme inhibition, two-step [3H]cAMP procedure
Assay type: biochemical
Conditions: [3H]cAMP substrate, 30 °C for 30 min, Tris buffer pH=7.6
Description: Cyclic nucleotide phosphodiesterase activity is measured by a two-step procedure. […] The reaction is initiated by addition of the substrate. […] After cooling the tubes, 50µl of Crotalux atrox (0.5 mg/ml dest. water) is added and the samples are incubated and shaked for 30 min at 37°C. […] The mixture of 500 µl supernatant and 5 ml of liquid scintillation cocktail is measured to determine the amount of formed ^3H adenosine.

| IC50 [µM] | Molecule |
| --- | --- |
| 1 | CCOc1ccc(C=C2NCCc3cc(OCC)c(OCC)cc32)cc1OCC [Example 2, drotaverin cyclamate] |
| 4.7 | CCOc1ccc(/C=C2\NCCc3cc(OCC)c(OCC)cc32)cc1OCC [drotaverin hydrochloride, reference compound] |

| Molecule | IC50 [µM] |
| --- | --- |
| drotaverin-saccharimide ethanolate [Example 1] | 3.8 |
